Measurements taken from PubChem BioAssay AID504563 (Southern Research Specialized Biocontainment Screening …, 2011).

Test system: HIV-1 CXCR4-tropic in human PBMC, supernatant RT activity
Assay: antiviral activity, X4 HIV-1 in human PBMC – cell-based, set 2, dose response (AID 504563)

| Structure (SMILES) | IC50 |
| --- | --- |
| COc1ccc(CCn2c(O)cc3nn(-c4nc5ccccc5s4)c(=O)c-3c2C)cc1 | 12.6 µM |
| Cc1c2c(=O)n(-c3nc4ccccc4s3)nc-2cc(O)n1Cc1cccnc1 | 1.51 µM |
| Cc1c2c(=O)n(-c3nc4ccccc4s3)nc-2cc(O)n1Cc1ccccc1Cl | 7.26 µM |
| Cc1c2c(=O)n(-c3nc4ccccc4s3)nc-2cc(O)n1C1CC1 | 0.76 µM |
| Cc1c2c(=O)n(-c3nc4ccccc4s3)nc-2cc(O)n1Cc1cccs1 | 1.83 µM |
| Cc1c2c(=O)n(-c3nc4ccccc4s3)nc-2cc(O)n1Cc1ccc(F)cc1 | 3.98 µM |
| Cc1c2c(=O)n(-c3nc4ccccc4s3)nc-2cc(O)n1Cc1ccncc1 | 1.99 µM |
| COc1ccccc1Cn1c(O)cc2nn(-c3nc4ccccc4s3)c(=O)c-2c1C | 5.55 µM |
| COc1ccc(Cn2c(O)cc3nn(-c4nc5ccccc5s4)c(=O)c-3c2C)cc1 | 2.86 µM |
| Cc1c2c(=O)n(-c3nc4ccccc4s3)nc-2cc(O)n1Cc1ccccc1 | 3.21 µM |
| Cc1c2c(=O)n(-c3nc4ccccc4s3)nc-2cc(O)n1CCc1cccs1 | 3.77 µM |
| Cc1c2c(=O)n(-c3nc4ccccc4s3)nc-2cc(O)n1CCc1ccc(O)cc1 | 1.85 µM |
| Cc1c2c(=O)n(-c3nc4ccccc4s3)nc-2cc(O)n1CCC(C)C | 5.25 µM |
